Assay results as given in patent publication US20050058600A1, “3,3'-Diindolylmethane antiandrogenic compositions” (priority 2003, published 2005).

Legend:
[1] = tested on: PC-3 cells; test: PC-3 cell growth (cell counting); format: cell-based, human; settings: 96 h treatment; same concentrations (up to 50 μM)
Method: DIM was prepared from I3C as described (26-28) and recrystallized in toluene. The human prostate adenocarcinoma cell lines LNCaP-FGC and PC-3 were obtained from the American Type Culture Collection (Rockville, Md.). They were grown as adherent monolayers in 10% FBS-DMEM, supplemented with 4.0 g/L glucose and 3.7 g/L sodium bicarbonate in a humidified incubator at 37° C. and 5% CO2 and passaged at approximately 80% confluency. Cultures used in subsequent experiments were at less than 40 passages. Cells grown in stripped conditions were in 5% DCC-FBS-DMEM base supplemented with 4.0 g/L glucose, 3.7 g/L sodium bicarbonate, and 0.293 g/L L-Glutamine.
Cell Growth. Before the beginning of the treatments, cells were depleted of androgen for 4-7 d in medium composed of DMEM base without phenol-red and with 4.0 g/L glucose and 3.7 g/L sodium bicarbonate. During the depletion period, medium was changed every 48 h. Treatments were administered by addition of 1 μL of 1,000× solution in DMSO per mL of medium. Once the treatment period started, medium was changed daily to counter possible loss of readily metabolized compounds.
Cell Counting. Cells were harvested by trypsinization and resuspended in culture medium. Aliquots were diluted 50-fold in Isoton II (Coulter Corp., Miami, Fla.) and 200 μL duplicates were counted in a model Z1 Coulter particle counter and averaged.

[2] = biological target: T1, AR (Homo sapiens, UniProt P10275, T878A); test: AR cytoplasmic/nuclear distribution by subcellular fractionation and Western blot in LNCaP cells; format: cell-based
T1 construct: 95 μL of either LNCaP cell extracts or recombinant AR protein; endogenous in cells; host or cells: LNCaP
T1 sequence (P10275 1-920 T878A): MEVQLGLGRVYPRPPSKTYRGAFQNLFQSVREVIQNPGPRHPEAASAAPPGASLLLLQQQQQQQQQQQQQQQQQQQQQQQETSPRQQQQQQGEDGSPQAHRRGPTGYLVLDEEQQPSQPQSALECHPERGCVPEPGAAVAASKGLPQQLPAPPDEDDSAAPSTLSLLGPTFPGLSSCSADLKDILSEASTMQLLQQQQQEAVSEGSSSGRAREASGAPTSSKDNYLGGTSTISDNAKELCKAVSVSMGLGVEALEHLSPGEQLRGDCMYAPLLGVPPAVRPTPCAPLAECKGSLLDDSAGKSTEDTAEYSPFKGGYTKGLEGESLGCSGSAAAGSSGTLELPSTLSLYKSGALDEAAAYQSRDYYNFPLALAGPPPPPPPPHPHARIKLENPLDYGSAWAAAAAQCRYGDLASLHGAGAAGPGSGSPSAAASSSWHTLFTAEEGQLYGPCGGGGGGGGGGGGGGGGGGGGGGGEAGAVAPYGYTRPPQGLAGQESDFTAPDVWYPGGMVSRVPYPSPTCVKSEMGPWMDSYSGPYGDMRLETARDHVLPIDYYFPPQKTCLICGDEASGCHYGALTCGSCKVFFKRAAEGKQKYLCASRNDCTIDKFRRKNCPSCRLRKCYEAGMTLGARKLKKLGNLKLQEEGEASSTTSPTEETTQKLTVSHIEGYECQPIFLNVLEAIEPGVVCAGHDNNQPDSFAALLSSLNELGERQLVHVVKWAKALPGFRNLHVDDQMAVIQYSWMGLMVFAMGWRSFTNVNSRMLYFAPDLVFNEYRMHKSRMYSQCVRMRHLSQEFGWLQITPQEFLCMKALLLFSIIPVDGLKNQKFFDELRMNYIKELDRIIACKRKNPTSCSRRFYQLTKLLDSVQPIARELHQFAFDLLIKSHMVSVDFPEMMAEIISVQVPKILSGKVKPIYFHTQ
Method: Subcellular Fractionation. Three near confluent (80-90%) cultures of LNCaP cells in 100 mm Petri dishes were used for each treatment. Treatments were added as 1 μL of 1,000× solution in DMSO per ml of medium for the indicated time. After incubation with treatments at 37° C., cytosolic and nuclear proteins were prepared as described (32,33) with modifications. Briefly, cells were lysed in hypotonic buffer (10 mM Hepes, pH 7.5) and harvested in MDH buffer (3 mM MgCl2, 1 mM DTT, 25 mM Hepes, pH 7.5). After homogenization, supernatant was saved for cytosolic proteins and nuclear proteins were extracted from the pellets using MDHK buffer (3 mM MgCl2, 1 mM DTT, 0.1 M KCl, 25 mM Hepes, pH 7.5) followed by HDK buffer (25 mM Hepes, pH 7.5, 1 mM DTT, 0.4 M KCl). Cytosolic and nuclear extracts were subsequently analyzed by Western blot analysis.
Western Blot Analysis. Following the indicated treatment, Western immunoblot analyses of androgen receptor from LNCaP cells were performed as described previously (20). […] The amount of protein was quantified by Gel Densitometer (Bio-Rad) and normalized with P-actin when used as an internal control.

effect on nuclear translocation of the AR, compound alone ([2]; absence of DHT): had no effect
block of DHT-induced AR translocation ([2]; co-treatment with 1 nM DHT): up to 75%
Structure (SMILES): c1ccc2c(Cc3c[nH]c4ccccc34)c[nH]c2c1 [DIM, 3,3′-diindolylmethane]
effects on the growth of PC-3 cells [1]: no observable effects
